Test results published in patent EP0394283B1, “USE OF A TRIPEPTIDE FOR THE PREPARATION OF PHARMACEUTICAL COMPOSITIONS AND A PHARMACEUTICAL COMPOSITION AND METHOD” (Hafslund Nycomed AS, priority 1987, dated 1992).
Residues, ends and D or L forms follow the SMILES beside them.

Tested on: large intestinal epithelium
Test: Mitotic rate (Colcemid-arrested metaphases per 500 crypt cells) in the large intestinal epithelium after i.p. injection
Type: in vivo, hairless mice
Conditions: dose of 10⁻¹² mole per animal, at the doses and times tested
Procedure: All in vivo experiments were performed with hairless mice at 0800-0900 AM. The fractions were suspended in distilled water, slightly acidified (pH=6) and injected i.p. at different doses dependent on the purity of the fraction. The controls received solvent only. The pattern of cell proliferation after injecting the peptide was examined by varying the time between treatment and sacrifice.
Two hours before sacrifice (except for the experiments testing tissue specificity in the kidney) all animals received Colcemid 0.15 mg per animal i.p. ³HTdR (tritiated thymidine) was injected 30 minutes before sacrifice (30 µCi per animal i.p.). […]
Mitotic rate: After routine dehydration and paraffin embedding, sections were cut at 5 µm and stained with haematoxylin. Colcemid-arrested mitoses per 500 crypt cells were determined in ten longitudinally cut crypts in ileum and colon. […] The number of accumulated metaphases in epidermis was determined by counting 25 vision fields of interfollicular epidermis (eyepiece 12.5, objective 40) and expressed as mitoses per vision field per 2h.

SMILES: O=C(O)CC[C@H](NC(=O)[C@@H]1CCC(=O)N1)C(=O)N[C@@H](CC(=O)O)C(=O)N[C@@H](CO)C(=O)NCC(=O)O [pGlu-Glu-Asp-Ser-Gly(OH)] (HELM PEPTIDE1{[Glp].E.D.S.G}$$$$V2.0)
- cell proliferation in the large intestinal epithelium: unchanged
